Tests used:
[1] = tested on: activated neutrophils; assay: NETs formation (MPO-DNA ELISA, CitH3 immunofluorescence and Western blot); format: cell-based, mouse; conditions: PMA-activated neutrophils, 50 µM, 4 h, CitH3 staining and Western blot
Description: Submitted to Advanced Science
Neutrophil Elastase Activity Assay
To evaluate the distribution of active NE on the surface and inside of neutrophils, we used a kit (AkrivisBio’s Neutrophil Elastase Activity Assay, MA-0156), seeded neutrophils in confocal microscopy dishes, and then treated them with NFTP-NPs (50 µM, medium: DMSO = 99:1, v/v), FTP-NPs (50 µM, medium: DMSO = 99:1, v/v), PMA+NFTP-NPs (50 µM, medium: DMSO = 99:1, v/v), and PMA+FTP-NPs (50 µM, medium: DMSO = 99:1, v/v) at 37°C. Because the Neutrophil elastase in the kit cleaves a concrete fluorogenic substrate which releases AFC, providing intense fluorescence, 50 μl of MeOSucc-AAPV-AFC mix (Assay Buffer: MeOSucc-AAPV-AFC = 48:2) was added at 4 h, and after incubation for 1 h, the samples were examined by CLSM (LSM980, Zeiss, Germany).
Quantitative analysis of NE activity […]
DMSO = 99:1, v/v) for 4 h to obtain the solution.35,36 Quantitative analysis was carried out by a NETosis Assay Kit (Cayman Chemical, USA).
Quantitative induction analysis of NETs in vitro […]
According to the manufacturer's instructions, MPO -DNA levels in cultured supernatant were analyzed by an ELISA kit (MEIMIAN, China).38 Briefly, samples were added to each well and incubated with anti -MPO and anti-DNA antibodies for 2 h at room temperature. […] The OD value w as then measured by a microplate […]

[2] = tested on: mouse red blood cells (RBCs); assay: Hemolysis assay; format: cell-based; conditions: 2% RBC suspension in PBS, 1 h, 37 °C, absorbance at 541 nm, triplicate
Description: Hemolysis Assay of FTP-NPs
To assess the hemolytic activity of FTP-NPs, red blood cells (RBCs) were harvested from C57BL/6 mice (aged 6–8 weeks, female). The mice were euthanized by cervical dislocation, and blood was collected via cardiac puncture into heparinized tubes. Blood was then immediately diluted with an equal volume of phosphate-buffered saline (PBS) and centrifuged at 1500 g for 10 minutes to isolate the RBCs. The supernatant was discarded, and the RBC pellet was washed three times with PBS to remove any residual plasma and other cellular components. The final RBC suspension was adjusted to a 2% hematocrit using PBS. FTP-NPs were synthesized as described previously. Briefly, FTP-NPs were prepared by self-assembly of peptidic […]
concentration was tested in triplicate. For the hemolysis assay, 200 μL of the 2% RBC suspension was incubated with 200 μL of FTP-NPs at the specified concentrations in a 96-well plate for 1 hour at 37°C under gentle shaking. […] The hemoglobin released into the supernatant was quantified by measuring the absorbance at 541 nm (A541) using a microplate reader. The percentage of hemolysis was calculated using the following formula: Hemolysis %= (Asample−ANC)/ (APC−ANC) *100%. Where Asample is the absorbance of the sample, ANC is the absorbance of the negative control, and APC is the absorbance of the positive control. […]

For PpIX-GFFVLK-EAIPMSIPPEVK [FTP-NPs], the “formation of NETs” value [1] was “effectively inhibit the formation of NETs” and the “maximum observed hemolysis rate” value [2] was “approximately 0.9%”.

— article PMC12767106, “In Situ Assembly of Transformable Monopeptide on Activated Neutrophils Attenuates NETs‐Induced Hepatocellular Carcinoma Metastasis by Disrupting NE Nuclear Translocation” (Advanced Science, 2025)
